Source: patent US20260035372A1, “METHOD FOR PREPARING (R)-KETOROLAC AND USE THEREOF” (Yinuoke Medicine Science and Technology Co LTD, priority 2022, published 2026)

Tests used:
[1] = stronger than (R)-ketorolac; cited from earlier work
[2] = stronger than (R)-ketorolac; cited from earlier work; remark: listed apart in the source
[3] = system: colon cancer model Colon-26; test: (R)-ketorolac combined with gemcitabine on colon cancer model Colon-26, tumor growth curve; format: in vivo; details: Colon-26 s.c. in male BALB/C mice; (R)-ketorolac alone by gavage 0.1 mg/d for 12 d
Method: (§1) The colon cancer tumor model was established by using adult male BALB/C mice which were subcutaneously inoculated 106 well-growing Colon-26 tumor cells. Starting from the 7th day after tumor inoculation, the two largest diameters of the tumors were measured with vernier calipers twice a week, and the tumor size was expressed as area (square millimeters). After the tumors grew to a certain size, the mice were randomly divided into 4 groups, including a control group (n=5) and 3 treatment groups: the (R)-ketorolac monotherapy group (n=5) was administered by gavage, 0.1 mg/d, for a total of 12 d; the gemcitabine monotherapy group (n=4) was administered intraperitoneally, 2 mg/1 time every 3 d, for a total of 4 times; and the combined therapy group (n=5) adopted the two drugs in combination, and the dosage and frequency of administration were the same as those in the monotherapy group.
After starting the treatment, the tumors were measured twice a week, and a tumor growth curve was made based on average tumor area=SEM.

[4] = system: aortic dissection and aortic aneurysm; details: oral administration; from CN202111115983.X; cited from earlier work
[5] = system: colon cancer model Colon-26; details: Colon-26 in BALB/C mice; cyclophosphamide i.p. 3 mg every 6 d x3, with or without (R)-ketorolac 0.1 mg/d x18
Method: as §1
The colon cancer tumor model was established as described in the above.
After starting the treatment, the tumors were measured twice a week, and a tumor growth curve was made based on average tumor area±SEM.

Question: What does the source list for `O=C(c1ccccc1)c1ccc2n1CC[C@@H]2C(=O)O` [(S)-ketorolac]?
Answer: anti-inflammatory effect relative to (R)-ketorolac [1]: 60 times; analgesic effect relative to (R)-ketorolac [2]: 230 times

Question: What does the source list for `O=C(c1ccccc1)c1ccc2n1CC[C@H]2C(=O)O` [(R)-ketorolac]?
Answer: effect on colon cancer tumor growth (tumor area growth curve, FIG. 16) [3]: no effect; effect on aortic dilation, incidence and mortality of aortic dissection and aortic aneurysm [4]: inhibit pathological dilation of the aorta and reduce the incidence and mortality of aortic dissection and aortic aneurysm

Question: Which cure rate [5] does the source give for `O=P1(N(CCCl)CCCl)NCCCO1` (stereo not drawn) [cyclophosphamide] here?
Answer: Its cure rate is 16.7%.

Question: What about the mice completely cured [5] of the same compound?
Answer: The mice completely cured was 1 out of 6.
